Columns and labels:
Type in all cases: cell-based
Conditions in all cases: 48, 72 and 96 hrs, supramolecular taxane conjugate
MDA-MB-231 = assay: Cell viability assay (MTT), breast cancer cell line
Protocol: (§1) Mammalian cells were grown in specific culture media, supplemented with 10% fetal bovine serum (FBS) and antibiotics in a humidified environment containing 5% CO2 at 37° C.
(§2) The effects of supramolecular taxane conjugates on the viability of cancer cells were measured using MTT assay (^6,7,8). Cells in 100 μl culture-media were plated in 96-well plates (3000-5000 cells/well) and allowed to adhere overnight in a humidified environment containing 5% CO2 at 37° C. Fresh media (100 μL) containing different concentrations of compounds were added to cells and incubated for 48, 72 and 96 hrs. Following incubation, cell viability was determined using the MTT assay. Similar assay was performed on normal human epithelial cells seeded in 100 μl media in 96-well plate (5000-10,000 cells per well), under identical incubation time and dosage of compounds, used for cancer cells to determine the effect of this targeted therapy on normal cells. The cell viability was plotted as dose-response curves using curve fitting.
(§3) The effects of compounds (New taxane 2 and 16) were evaluated in vitro in comparison with standard taxanes in breast cancer (MDA-MB-231), ovarian cancer (SKOV-3), lung cancer (A549), prostate cancer (DU-145), and colorectal cancer (HCT-116) cell lines.

SKOV-3 = assay: Cell viability assay (MTT), ovarian cancer cell line
Protocol: as §1, §2, §3

A549 = assay: Cell viability assay (MTT), lung cancer cell line
Protocol: as §1, §2, §3

DU-145 = assay: Cell viability assay (MTT), prostate cancer cell line
Protocol: as §1, §2, §3

HCT-116 = assay: Cell viability assay (MTT), colorectal cancer cell line
Protocol: as §1, §2, §3

Measured: efficacy on cell viability versus standard taxanes

CO[C@H]1C(=O)[C@]2(C)[C@@H](OC)C[C@H]3OC[C@@]3(OC(C)=O)[C@H]2[C@H](OC(=O)c2ccccc2)[C@]2(O)C[C@H](OC(=O)[C@H](OC(=O)CCC(=O)NCC(=O)O[C@H]3CC[C@@]4(C)C(=CCC5C4CC[C@@]4(C)C5CC[C@@H]4[C@H](C)CCCC(C)C)C3)[C@@H](NC(=O)OC(C)(C)C)c3ccccc3)C(C)=C1C2(C)C (stereo partly shown) [compound 2]
comparable efficacy to standard taxanes: MDA-MB-231 | SKOV-3 | A549 | DU-145 | HCT-116

CC(=O)O[C@H]1C(=O)[C@@]2(C)[C@H]([C@H](OC(=O)c3ccccc3)[C@]3(O)C[C@H](OC(=O)[C@H](OC(=O)CCC(=O)NCC(=O)O[C@H]4CC[C@@]5(C)C(=CCC6C5CC[C@@]5(C)C6CC[C@@H]5[C@H](C)CCCC(C)C)C4)[C@@H](NC(=O)c4ccccc4)c4ccccc4)C(C)=C1C3(C)C)[C@]1(OC(C)=O)CO[C@@H]1C[C@@H]2O (stereo partly shown) [compound 16]
comparable efficacy to standard taxanes: MDA-MB-231 | SKOV-3 | A549 | DU-145 | HCT-116

— US10426753B2, “Supramolecular combinatorial therapeutics” (INVICTUS ONCOLOGY PVT. LTD., priority 2014, dated 2019)
